Results from US11000033B2, “Ketone or oxime compound, and herbicide” (NISSAN CHEMICAL CORPORATION, priority 2014, dated 2021).

What was measured:
Type in all cases: in vivo
[1] = test system: Echinochloa crus-galli var. crus-galli; test: Test Example 3: herbicidal effect by foliage application, Wagner pot (symbol H); conditions: application herbicide amount 320 g/ha
Method in brief: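 Post-emergence, paddy-type test: seedlings 14 d old in shallow-flooded (0.1–0.5 cm) alluvial soil, 25–30 °C greenhouse. Emulsion diluted to target rate, sprayed on leaves. Read-out: visual effect on each species at 3 weeks, per set criteria.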

[2] = test system: Echinochloa crus-galli var. crus-galli; test: Test Example 5: herbicidal effect by foliage application, plastic box (symbol H); conditions: 320 g/ha, 3 weeks after application
Method in brief: (§1)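 After sowing into sterilized diluvial soil and growing two weeks under glass at 25° C. to 30° C., seedlings receive a uniform foliar spray of diluted emulsion. Damage is judged visually three weeks on.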

[3] = test system: corn; test: Test Example 4: effect on crop by soil treatment (symbol c); conditions: application herbicide amount 320 g/ha
Method in brief: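 Steps: fill box with sterilized diluvial soil; sow seed spot-like; cover with ~1.5 cm soil; grow in greenhouse (25° C. to 30° C.).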

[4] = test system: Alopecurus myosuroides; test: Test Example 4: herbicidal effect by soil treatment (symbol J); conditions: application herbicide amount 320 g/ha
Method in brief: (§2)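 Seeds were sown in sterilized diluvial soil, covered with about 1.5 cm of soil, and the soil surface was sprayed with a water-diluted emulsion of the compound at a predetermined rate. Plants grew in a greenhouse at 25° C. to 30° C.; effects were scored visually 3 weeks after application.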

[5] = test system: transplanted rice plant; test: Test Example 1: effect on crop, application before weed generation in submerged conditions (symbol a); conditions: application herbicide amount 320 g/ha
Method in brief: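 Alluvial soil pots flooded to 4 cm water, sown with Echinochloa oryzacola, Scirpus juncoides and Monochoria vaginalis, then transplanted with 2.5 leaf stage rice seedlings; pre-emergence application. Greenhouse 25° C. to 30° C.; scored 0–5 by herbicidal ratio 3 weeks after application.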

[6] = test system: Amaranthus retroflexus; test: Test Example 5: herbicidal effect by foliage application, plastic box (symbol N); conditions: 320 g/ha, 3 weeks after application
Method in brief: as §1

[7] = test system: Abutilon theophrasti; test: Test Example 4: herbicidal effect by soil treatment (symbol M); conditions: application herbicide amount 320 g/ha
Method in brief: as §2

[8] = test system: Alopecurus myosuroides; test: Test Example 5: herbicidal effect by foliage application, plastic box (symbol J); conditions: 320 g/ha, 3 weeks after application
Method in brief: as §1

[9] = test system: Apera spica-venti; test: Test Example 5: herbicidal effect by foliage application, plastic box (symbol L); conditions: 320 g/ha, 3 weeks after application
Method in brief: as §1

[10] = test system: Chenopodium album; test: Test Example 5: herbicidal effect by foliage application, plastic box (symbol O); conditions: 320 g/ha, 3 weeks after application
Method in brief: as §1

[11] = test system: Veronica persica; test: Test Example 5: herbicidal effect by foliage application, plastic box (symbol R); conditions: 320 g/ha, 3 weeks after application
Method in brief: as §1

[12] = test system: Chenopodium album; test: Test Example 4: herbicidal effect by soil treatment (symbol O); conditions: application herbicide amount 320 g/ha
Method in brief: as §2

[13] = test system: Lolium multiflorum Lam.; test: Test Example 5: herbicidal effect by foliage application, plastic box (symbol K); conditions: 320 g/ha, 3 weeks after application
Method in brief: as §1

[14] = test system: corn; test: Test Example 5: effect on crop by foliage application, plastic box (symbol c); conditions: 320 g/ha, 3 weeks after application
Method in brief: (§3)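 Box culture: sterile diluvial soil, seeds spot-sown, ~1.5 cm cover, raised under glass at 25–30° C.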

[15] = test system: Stellaria media; test: Test Example 4: herbicidal effect by soil treatment (symbol P); conditions: application herbicide amount 320 g/ha
Method in brief: as §2

[16] = test system: Galium spurium; test: Test Example 4: herbicidal effect by soil treatment (symbol Q); conditions: application herbicide amount 320 g/ha
Method in brief: as §2

[17] = test system: soybean; test: Test Example 5: effect on crop by foliage application, plastic box (symbol d); conditions: 320 g/ha, 3 weeks after application
Method in brief: as §3

For `CON=C(C)CC1CC(O)=C(c2c(C)cc(-c3ccsc3)cc2C)C1=O` (centres unmarked) [6-106], the “herbicidal effect on H (Echinochloa crus-galli var. crus-galli), grade 0-5” value (from here on “herbicidal effect on H”) [1] was 4 (Herbicidal ratio of 70% or higher and lower than 90%), the “H: Echinochloa crus-galli var. crus-galli, herbicidal effect (criteria of Test Example 1)” value [2] was 5 (Herbicidal ratio of 90% or more (almost completely withered)) and the “Effect on crop grade, c: corn” value [3] was 0 (Herbicidal ratio of 5% or lower (almost no effect)). The “Herbicidal effect grade, J: Alopecurus myosuroides” value (from here on “Herbicidal effect grade, J”) [4] was 3 (Herbicidal ratio of 40% or higher and lower than 70%), the “Effect grade on crop, a: transplanted rice plant” value (from here on “Effect grade on crop”) [5] was 5 (Herbicidal ratio of 90% or more (almost completely withered)) and the “N: Amaranthus retroflexus, herbicidal effect (criteria of Test Example 1)” value (“N: Amaranthus retroflexus” below) [6] was 0 (Herbicidal ratio of 5% or lower (almost no effect)). The “Herbicidal effect grade, M: Abutilon theophrasti” value (“Herbicidal effect grade, M” below) [7] was 0 (Herbicidal ratio of 5% or lower (almost no effect)), the “J: Alopecurus myosuroides, herbicidal effect (criteria of Test Example 1)” value [8] was 5 (Herbicidal ratio of 90% or more (almost completely withered)) and the “L: Apera spica-venti, herbicidal effect (criteria of Test Example 1)” value (shortened to “L: Apera spica-venti, herbicidal effect”) [9] was 5 (Herbicidal ratio of 90% or more (almost completely withered)). The “O: Chenopodium album, herbicidal effect (criteria of Test Example 1)” value (“O: Chenopodium album, herbicidal effect” for short) [10] was 0 (Herbicidal ratio of 5% or lower (almost no effect)), the “R: Veronica persica, herbicidal effect (criteria of Test Example 1)” value (“R: Veronica persica, herbicidal effect” below) [11] was 3 (Herbicidal ratio of 40% or higher and lower than 70%) and the “Herbicidal effect grade, O: Chenopodium album” value (from here on “Herbicidal effect grade, O”) [12] was 0 (Herbicidal ratio of 5% or lower (almost no effect)). For the same compound, the “K: Lolium multiflorum Lam., herbicidal effect (criteria of Test Example 1)” value [13] was 5 (Herbicidal ratio of 90% or more (almost completely withered)), the “c: corn, effect on crop (criteria of Test Example 1)” value (“c: corn, effect on crop” for short) [14] was 5 (Herbicidal ratio of 90% or more (almost completely withered)) and the “Herbicidal effect grade, P: Stellaria media” value (“Herbicidal effect grade, P” below) [15] was 0 (Herbicidal ratio of 5% or lower (almost no effect)). For the same compound, the “Herbicidal effect grade, Q: Galium spurium” value (from here on “Herbicidal effect grade, Q”) [16] was 0 (Herbicidal ratio of 5% or lower (almost no effect)) and the “d: soybean, effect on crop (criteria of Test Example 1)” value (from here on “d: soybean, effect on crop”) [17] was 1 (Herbicidal ratio of 5% or higher and lower than 20%).

`CON=C(C)CC1CC(O)=C(c2c(F)cc(-c3ccccc3)cc2OC)C1=O` (centres unmarked) [6-107] was tested, and the “herbicidal effect on H” value [1] was 5 (Herbicidal ratio of 90% or more (almost completely withered)), the “H: Echinochloa crus-galli var. crus-galli, herbicidal effect (criteria of Test Example 1)” value [2] was 5 (Herbicidal ratio of 90% or more (almost completely withered)) and the “Effect on crop grade, c: corn” value [3] was 0 (Herbicidal ratio of 5% or lower (almost no effect)). For the same compound, the “Herbicidal effect grade, J” value [4] was 5 (Herbicidal ratio of 90% or more (almost completely withered)), the “Effect grade on crop” value [5] was 5 (Herbicidal ratio of 90% or more (almost completely withered)) and the “N: Amaranthus retroflexus” value [6] was 2 (Herbicidal ratio of 20% or higher and lower than 40%). The “Herbicidal effect grade, M” value [7] was 4 (Herbicidal ratio of 70% or higher and lower than 90%), the “J: Alopecurus myosuroides, herbicidal effect (criteria of Test Example 1)” value [8] was 5 (Herbicidal ratio of 90% or more (almost completely withered)) and the “L: Apera spica-venti, herbicidal effect” value [9] was 5 (Herbicidal ratio of 90% or more (almost completely withered)). For the same compound, the “O: Chenopodium album, herbicidal effect” value [10] was 4 (Herbicidal ratio of 70% or higher and lower than 90%), the “R: Veronica persica, herbicidal effect” value [11] was 4 (Herbicidal ratio of 70% or higher and lower than 90%) and the “Herbicidal effect grade, O” value [12] was 4 (Herbicidal ratio of 70% or higher and lower than 90%). For the same compound, the “K: Lolium multiflorum Lam., herbicidal effect (criteria of Test Example 1)” value [13] was 5 (Herbicidal ratio of 90% or more (almost completely withered)), the “c: corn, effect on crop” value [14] was 5 (Herbicidal ratio of 90% or more (almost completely withered)) and the “Herbicidal effect grade, P” value [15] was 2 (Herbicidal ratio of 20% or higher and lower than 40%). The “Herbicidal effect grade, Q” value [16] was 2 (Herbicidal ratio of 20% or higher and lower than 40%) and the “d: soybean, effect on crop” value [17] was 1 (Herbicidal ratio of 5% or higher and lower than 20%).

For `CON=C(C)CC1CC(O)=C(c2c(F)cc(C)cc2OC)C1=O` (centres unmarked) [6-108], the “herbicidal effect on H” value [1] was 5 (Herbicidal ratio of 90% or more (almost completely withered)), the “H: Echinochloa crus-galli var. crus-galli, herbicidal effect (criteria of Test Example 1)” value [2] was 5 (Herbicidal ratio of 90% or more (almost completely withered)) and the “Effect on crop grade, c: corn” value [3] was 1 (Herbicidal ratio of 5% or higher and lower than 20%). The “Herbicidal effect grade, J” value [4] was 3 (Herbicidal ratio of 40% or higher and lower than 70%), the “Effect grade on crop” value [5] was 5 (Herbicidal ratio of 90% or more (almost completely withered)) and the “N: Amaranthus retroflexus” value [6] was 5 (Herbicidal ratio of 90% or more (almost completely withered)). The “Herbicidal effect grade, M” value [7] was 5 (Herbicidal ratio of 90% or more (almost completely withered)), the “J: Alopecurus myosuroides, herbicidal effect (criteria of Test Example 1)” value [8] was 5 (Herbicidal ratio of 90% or more (almost completely withered)) and the “L: Apera spica-venti, herbicidal effect” value [9] was 5 (Herbicidal ratio of 90% or more (almost completely withered)). The “O: Chenopodium album, herbicidal effect” value [10] was 2 (Herbicidal ratio of 20% or higher and lower than 40%), the “R: Veronica persica, herbicidal effect” value [11] was 2 (Herbicidal ratio of 20% or higher and lower than 40%) and the “Herbicidal effect grade, O” value [12] was 5 (Herbicidal ratio of 90% or more (almost completely withered)). For the same compound, the “K: Lolium multiflorum Lam., herbicidal effect (criteria of Test Example 1)” value [13] was 5 (Herbicidal ratio of 90% or more (almost completely withered)), the “c: corn, effect on crop” value [14] was 5 (Herbicidal ratio of 90% or more (almost completely withered)) and the “Herbicidal effect grade, P” value [15] was 3 (Herbicidal ratio of 40% or higher and lower than 70%). The “Herbicidal effect grade, Q” value [16] was 3 (Herbicidal ratio of 40% or higher and lower than 70%) and the “d: soybean, effect on crop” value [17] was 3 (Herbicidal ratio of 40% or higher and lower than 70%).

In the case of `CON=C(C)CC1CC(OC(=O)N(C)C)=C(c2c(C)cc(C)cc2OC)C1=O` (centres unmarked) [6-109], the “herbicidal effect on H” value [1] is reported as 5 (Herbicidal ratio of 90% or more (almost completely withered)), the “H: Echinochloa crus-galli var. crus-galli, herbicidal effect (criteria of Test Example 1)” value [2] is reported as 5 (Herbicidal ratio of 90% or more (almost completely withered)) and the “Effect on crop grade, c: corn” value [3] is reported as 0 (Herbicidal ratio of 5% or lower (almost no effect)). For the same compound, the “Herbicidal effect grade, J” value [4] was 5 (Herbicidal ratio of 90% or more (almost completely withered)), the “Effect grade on crop” value [5] was 5 (Herbicidal ratio of 90% or more (almost completely withered)) and the “N: Amaranthus retroflexus” value [6] was 4 (Herbicidal ratio of 70% or higher and lower than 90%). For the same compound, the “Herbicidal effect grade, M” value [7] was 0 (Herbicidal ratio of 5% or lower (almost no effect)), the “J: Alopecurus myosuroides, herbicidal effect (criteria of Test Example 1)” value [8] was 5 (Herbicidal ratio of 90% or more (almost completely withered)) and the “L: Apera spica-venti, herbicidal effect” value [9] was 5 (Herbicidal ratio of 90% or more (almost completely withered)). The “O: Chenopodium album, herbicidal effect” value [10] was 0 (Herbicidal ratio of 5% or lower (almost no effect)), the “R: Veronica persica, herbicidal effect” value [11] was 1 (Herbicidal ratio of 5% or higher and lower than 20%) and the “Herbicidal effect grade, O” value [12] was 0 (Herbicidal ratio of 5% or lower (almost no effect)). For the same compound, the “K: Lolium multiflorum Lam., herbicidal effect (criteria of Test Example 1)” value [13] was 5 (Herbicidal ratio of 90% or more (almost completely withered)), the “c: corn, effect on crop” value [14] was 5 (Herbicidal ratio of 90% or more (almost completely withered)) and the “Herbicidal effect grade, P” value [15] was 0 (Herbicidal ratio of 5% or lower (almost no effect)). The “Herbicidal effect grade, Q” value [16] was 0 (Herbicidal ratio of 5% or lower (almost no effect)) and the “d: soybean, effect on crop” value [17] was 2 (Herbicidal ratio of 20% or higher and lower than 40%).
